From ChEMBL document CHEMBL1914447, “Novel orally active antimalarial thiazoles” (J Med Chem, 2011)
≈ marks a conversion by molar mass, not a printed value.

How the values were obtained:
[1] = target: Voltage-gated inwardly rectifying potassium channel KCNH2 (Homo sapiens, UniProt Q12809); experiment: Inhibition of human ERG expressed in Chinese hamster CHL cells by perforated patch clamp assay; format: cell-based
[2] = system: Plasmodium berghei; experiment: Antimalarial activity against GFP-transfected Plasmodium berghei ANKA infected in NMRI mouse assessed as reduction in parasitemia at 50 mg/kg, po administered as quadruple dose regimen after 4 days by flow cytometry; format: functional; parameters: scale not given: the % may be the effect or the level left
[3] = system: Plasmodium berghei; experiment: Antimalarial activity against GFP-transfected Plasmodium berghei ANKA infected in NMRI mouse assessed as mean survival time at 10 mg/kg, po administered as single dose; format: functional
[4] = system: Plasmodium berghei; experiment: Antimalarial activity against GFP-transfected Plasmodium berghei ANKA infected in NMRI mouse assessed as mean survival time at 50 mg/kg, po administered as quadruple dose regimen; format: functional
[5] = system: Liver microsomes; experiment: Metabolic stability in rat liver microsomes at 1 uM by LC-MS analysis; format: ADME, Microsome
[6] = system: Plasmodium berghei; experiment: Antimalarial activity against GFP-transfected Plasmodium berghei ANKA infected in NMRI mouse assessed as reduction in parasitemia at 200 mg/kg, po administered as single dose after 72 hrs by flow cytometry; format: functional; parameters: scale not given: the % may be the effect or the level left
[7] = Plasma protein binding in mouse at 200 ng/mL; format: ADME, cell-free; conditions: read-out: PPB (converted)
[8] = Apparent half life in Sprague-Dawley rat at 4.5 […], iv; format: ADME, organism-based; conditions: in vivo, read-out: t1/2(app) (converted)
[9] = Lipophilicity, log D of the compound by gradient HPLC at pH 7.4; format: physicochemical; conditions: buffer
[10] = target: Cytochrome P450 2C9 (Homo sapiens, UniProt P11712); experiment: Inhibition of CYP2C9-mediated Tolbutamide methlyhydroxylation in human liver microsomes by LCMS analysis; format: ADME, Microsome
Cytochrome P450 2C9, sequence (P11712 whole entry): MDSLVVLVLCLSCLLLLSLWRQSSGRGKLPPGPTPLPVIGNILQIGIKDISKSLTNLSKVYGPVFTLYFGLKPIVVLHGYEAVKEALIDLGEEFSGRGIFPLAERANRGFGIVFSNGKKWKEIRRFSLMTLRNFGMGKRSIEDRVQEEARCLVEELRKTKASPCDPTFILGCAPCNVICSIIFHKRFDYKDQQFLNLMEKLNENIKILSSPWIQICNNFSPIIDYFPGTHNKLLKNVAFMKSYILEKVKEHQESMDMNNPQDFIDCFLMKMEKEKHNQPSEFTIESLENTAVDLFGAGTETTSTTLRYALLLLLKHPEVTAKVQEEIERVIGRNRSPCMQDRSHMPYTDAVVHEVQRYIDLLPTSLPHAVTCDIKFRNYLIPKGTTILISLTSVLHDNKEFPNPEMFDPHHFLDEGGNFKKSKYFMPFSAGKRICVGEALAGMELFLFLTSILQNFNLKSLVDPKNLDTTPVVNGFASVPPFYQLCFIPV

[11] = Cmax in Sprague-Dawley rat plasma at 21.8 mg/kg, po by LCMS analysis; format: ADME, organism-based; parameters: dose 21.8 mg/kg, route oral
[12] = Apparent half life in Sprague-Dawley rat at 21.8 […], po; format: ADME, organism-based; conditions: in vivo, read-out: t1/2(app) (converted)
[13] = Plasma protein binding in human at 200 ng/mL; format: ADME, cell-free; conditions: read-out: PPB (converted)
[14] = system: Plasmodium berghei; experiment: Antimalarial activity against GFP-transfected Plasmodium berghei ANKA infected in po dosed NMRI mouse assessed as reduction in parasitemia administered as single dose after 72 hrs by flow cytometry; format: functional
[15] = system: Plasmodium berghei; experiment: Antimalarial activity against GFP-transfected Plasmodium berghei ANKA infected in NMRI mouse assessed as reduction in parasitemia at 10 mg/kg, po administered as single dose after 72 hrs by flow cytometry; format: functional; parameters: scale not given: the % may be the effect or the level left
[16] = AUC (0 to infinity) in Sprague-Dawley rat plasma at 4.5 mg/kg, iv by LCMS analysis; format: ADME, organism-based; parameters: time infinity, dose 4.5 mg/kg, route intravenous
[17] = target: Cytochrome P450 2C19 (Homo sapiens, UniProt P33261); experiment: Inhibition of CYP2C19-mediated (S)-mephenytoin 4'-hydroxylation in human liver microsomes by LCMS analysis; format: ADME, Microsome
Cytochrome P450 2C19, sequence (P33261 whole entry): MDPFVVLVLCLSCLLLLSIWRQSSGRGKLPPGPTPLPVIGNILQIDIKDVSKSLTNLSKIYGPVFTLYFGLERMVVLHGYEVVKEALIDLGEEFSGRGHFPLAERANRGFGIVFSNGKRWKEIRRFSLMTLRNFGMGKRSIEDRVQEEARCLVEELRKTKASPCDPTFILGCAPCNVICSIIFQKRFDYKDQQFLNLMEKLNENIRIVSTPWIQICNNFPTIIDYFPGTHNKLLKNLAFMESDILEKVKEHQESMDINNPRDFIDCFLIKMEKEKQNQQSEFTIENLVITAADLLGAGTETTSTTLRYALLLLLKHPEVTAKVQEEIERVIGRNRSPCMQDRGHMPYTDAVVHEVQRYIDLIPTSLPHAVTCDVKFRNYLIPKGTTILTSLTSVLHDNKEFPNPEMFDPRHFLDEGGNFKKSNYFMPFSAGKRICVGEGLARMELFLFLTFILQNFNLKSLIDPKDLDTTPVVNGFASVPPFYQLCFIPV

[18] = system: Plasmodium berghei; experiment: Antimalarial activity against GFP-transfected Plasmodium berghei ANKA infected in NMRI mouse assessed as reduction in parasitemia at 30 mg/kg, po administered as single dose after 72 hrs by flow cytometry; format: functional; parameters: scale not given: the % may be the effect or the level left
[19] = Total clearance in Sprague-Dawley rat plasma at 4.5 mg/kg, iv; format: ADME, organism-based; parameters: dose 4.5 mg/kg, route intravenous
[20] = target: Cytochrome P450 2D6 (Homo sapiens, UniProt P10635); experiment: Inhibition of CYP2D6-mediated dextromethorphan O-demethylation in human liver microsomes by LCMS analysis; format: ADME, Microsome
Cytochrome P450 2D6, sequence (P10635 whole entry): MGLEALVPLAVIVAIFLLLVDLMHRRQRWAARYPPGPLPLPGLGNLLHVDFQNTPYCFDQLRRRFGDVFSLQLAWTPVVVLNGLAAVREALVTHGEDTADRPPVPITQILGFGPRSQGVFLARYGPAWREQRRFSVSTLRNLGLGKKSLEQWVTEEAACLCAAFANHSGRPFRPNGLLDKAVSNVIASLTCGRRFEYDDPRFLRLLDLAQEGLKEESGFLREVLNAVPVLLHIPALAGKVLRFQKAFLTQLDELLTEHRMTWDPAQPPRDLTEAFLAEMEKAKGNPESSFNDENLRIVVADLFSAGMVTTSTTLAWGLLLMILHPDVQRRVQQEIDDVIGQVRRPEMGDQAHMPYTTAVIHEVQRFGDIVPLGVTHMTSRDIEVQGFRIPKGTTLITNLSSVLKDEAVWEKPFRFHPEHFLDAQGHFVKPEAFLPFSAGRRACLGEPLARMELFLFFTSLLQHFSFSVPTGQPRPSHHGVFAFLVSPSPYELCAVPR

[21] = target: T1, CYP3A4/5 (Homo sapiens, UniProt P08684+P20815); experiment: Inhibition of CYP3A4/5-mediated midazolam 1'-hydroxylation in human liver microsomes by LCMS analysis; format: ADME, Microsome; conditions: probe midazolam (1'-hydroxylation)
[22] = Tmax in Sprague-Dawley rat at 21.8 mg/kg, po by LCMS analysis; format: ADME, organism-based; parameters: dose 21.8 mg/kg, route oral; conditions: in vivo
[23] = Equilibrium solubility of the compound by nephelometry at pH 6.5; format: physicochemical; conditions: buffer
[24] = Plasma protein binding in rat at 200 ng/mL; format: ADME, cell-free; conditions: read-out: PPB (converted)
[25] = target: T2, Cytochrome P450 1A2 (Homo sapiens, UniProt P05177); experiment: Inhibition of CYP1A2-mediated phencetin o-de-ethylation in human liver microsomes by LCMS analysis; format: ADME, Microsome
T2 sequence (P05177 whole entry): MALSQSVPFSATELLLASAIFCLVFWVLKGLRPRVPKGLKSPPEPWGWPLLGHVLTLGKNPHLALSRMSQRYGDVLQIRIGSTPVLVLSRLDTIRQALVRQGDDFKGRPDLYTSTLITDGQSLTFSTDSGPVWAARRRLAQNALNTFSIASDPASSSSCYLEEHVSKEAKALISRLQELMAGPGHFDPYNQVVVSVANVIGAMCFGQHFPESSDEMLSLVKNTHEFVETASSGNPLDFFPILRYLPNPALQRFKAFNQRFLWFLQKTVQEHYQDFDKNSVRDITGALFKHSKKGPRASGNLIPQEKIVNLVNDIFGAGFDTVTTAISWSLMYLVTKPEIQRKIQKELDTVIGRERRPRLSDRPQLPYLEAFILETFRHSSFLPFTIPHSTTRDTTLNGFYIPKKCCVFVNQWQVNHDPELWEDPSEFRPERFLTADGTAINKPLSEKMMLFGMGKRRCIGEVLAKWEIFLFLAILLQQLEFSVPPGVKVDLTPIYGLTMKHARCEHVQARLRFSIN

[26] = system: Liver; experiment: Metabolic stability in mouse liver microsomes at 1 uM by LC-MS analysis; format: ADME, Microsome
[27] = system: Plasmodium berghei; experiment: Antimalarial activity against GFP-transfected Plasmodium berghei ANKA infected in NMRI mouse assessed as reduction in parasitemia at 100 mg/kg, po administered as single dose after 72 hrs by flow cytometry; format: functional; parameters: scale not given: the % may be the effect or the level left
[28] = system: Plasmodium berghei; experiment: Antimalarial activity against GFP-transfected Plasmodium berghei ANKA infected in NMRI mouse assessed as mean survival time at 100 mg/kg, po administered as single dose; format: functional
[29] = Ratio of drug level in blood to plasma of Sprague-Dawley rat at 4.5 mg/kg, iv; format: ADME, organism-based; parameters: dose 4.5 mg/kg, route intravenous; conditions: whole blood and plasma
[30] = system: L6; experiment: Cytotoxicity against rat L6 cells assessed after 72 hrs by alamar blue staining; format: cell-based; conditions: L6, 72 h
[31] = Lipophilicity, log D of the compound by gradient HPLC at pH 3.0; format: physicochemical; conditions: buffer
[32] = Volume of distribution at steady state in Sprague-Dawley rat at 4.5 mg/kg, iv; format: ADME, organism-based; parameters: dose 4.5 mg/kg, route intravenous; conditions: in vivo, read-out: Vdss
[33] = AUC (0 to infinity) in Sprague-Dawley rat plasma at 21.8 mg/kg, po by LCMS analysis; format: ADME, organism-based; parameters: time infinity, dose 21.8 mg/kg, route oral
[34] = Equilibrium solubility of the compound by nephelometry at pH 2.0; format: physicochemical; conditions: buffer
[35] = system: Liver microsomes; experiment: Metabolic stability in human liver microsomes at 1 uM by LC-MS analysis; format: ADME, Microsome
[36] = target: T1, CYP3A4/5; experiment: Inhibition of CYP3A4/5-mediated testosterone 6beta-hydroxylation in human liver microsomes by LCMS analysis; format: ADME, Microsome; conditions: probe testosterone (6beta-hydroxylation)
[37] = system: Plasmodium falciparum; experiment: microbe, parasite or virus in culture; conditions: K1
[38] = system: Plasmodium berghei; experiment: Antimalarial activity against GFP-transfected Plasmodium berghei ANKA infected in NMRI mouse assessed as mean survival time at 200 mg/kg, po administered as single dose after 72 hrs; format: functional
[39] = system: Plasmodium falciparum; experiment: microbe, parasite or virus in culture; conditions: NF54
[40] = system: Plasmodium berghei; experiment: Antimalarial activity against GFP-transfected Plasmodium berghei ANKA infected in NMRI mouse assessed as mean survival time at 30 mg/kg, po administered as single dose; format: functional
[41] = Total clearance in Sprague-Dawley rat blood at 4.5 mg/kg, iv; format: ADME, organism-based; parameters: dose 4.5 mg/kg, route intravenous; conditions: whole blood
[42] = Oral bioavailability in Sprague-Dawley rat at 21.8 mg/kg; format: ADME, organism-based; conditions: in vivo

Voltage-gated inwardly rectifying potassium channel KCNH2, sequence (Q12809 whole entry): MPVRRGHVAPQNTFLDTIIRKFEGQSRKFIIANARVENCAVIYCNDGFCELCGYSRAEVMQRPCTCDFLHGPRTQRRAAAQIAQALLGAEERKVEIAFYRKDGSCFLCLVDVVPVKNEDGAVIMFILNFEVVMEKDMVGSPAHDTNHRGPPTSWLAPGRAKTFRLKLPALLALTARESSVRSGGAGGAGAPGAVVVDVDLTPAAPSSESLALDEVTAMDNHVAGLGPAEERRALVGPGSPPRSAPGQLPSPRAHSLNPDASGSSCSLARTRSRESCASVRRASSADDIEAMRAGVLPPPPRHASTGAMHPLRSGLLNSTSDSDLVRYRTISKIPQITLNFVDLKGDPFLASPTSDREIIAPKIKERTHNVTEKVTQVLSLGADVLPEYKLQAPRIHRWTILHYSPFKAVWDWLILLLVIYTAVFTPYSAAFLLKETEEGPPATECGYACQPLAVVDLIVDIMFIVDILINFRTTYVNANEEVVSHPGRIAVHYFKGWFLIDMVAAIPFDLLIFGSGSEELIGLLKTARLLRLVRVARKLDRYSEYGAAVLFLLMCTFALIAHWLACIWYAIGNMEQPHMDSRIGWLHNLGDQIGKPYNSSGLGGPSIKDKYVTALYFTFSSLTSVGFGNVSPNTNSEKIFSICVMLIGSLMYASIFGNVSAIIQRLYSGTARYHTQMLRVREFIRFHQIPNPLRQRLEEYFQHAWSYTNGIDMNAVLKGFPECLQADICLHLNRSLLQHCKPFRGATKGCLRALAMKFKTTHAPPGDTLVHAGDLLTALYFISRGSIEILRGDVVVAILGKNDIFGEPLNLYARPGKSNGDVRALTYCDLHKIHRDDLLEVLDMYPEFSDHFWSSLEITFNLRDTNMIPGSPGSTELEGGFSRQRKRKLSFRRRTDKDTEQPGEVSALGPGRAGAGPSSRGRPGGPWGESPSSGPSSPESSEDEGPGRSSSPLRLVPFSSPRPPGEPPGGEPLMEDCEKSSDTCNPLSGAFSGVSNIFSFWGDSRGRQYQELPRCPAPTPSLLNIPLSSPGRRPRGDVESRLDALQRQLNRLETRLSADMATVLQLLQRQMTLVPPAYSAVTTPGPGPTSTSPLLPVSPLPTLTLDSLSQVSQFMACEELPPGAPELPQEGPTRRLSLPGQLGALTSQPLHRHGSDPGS

Structure (SMILES): CC(C)(C)c1cc(C(=O)Nc2nc(CN)cs2)n(Cc2ccccc2)n1
- IC50 [1]: 3.7 µM
- Activity [2]: 99.5%
- MSD [3]: 3 days
- MSD [4]: 9 days
- Stability [5]: Stable
- Activity [6]: 99.4%
- fraction unbound at 200 ng/mL [7]: 0.021
- half-life [8]: 3.7 h
- chromatographic logD [9]: 3.5
- IC50 [10]: 10 µM
- Cmax [11]: 1.6 µM
- half-life [12]: 3.1 h
- fraction unbound at 200 ng/mL [13]: 0.06
- ED50 [14]: 37 mg/kg
- ED90 [14]: 86 mg/kg
- Activity [15]: <40%
- AUC(0-inf) [16]: 4.82 µM·h
- IC50 [17]: 15 µM
- Activity [18]: <40%
- clearance [19]: 2.56 L/h/kg
- IC50 [20]: 0.4 µM
- IC50 [21]: > 30 µM
- Tmax [22]: 3.25 h
- solubility [23]: 0.142 mg/mL (≈ 0.385 mM)
- fraction unbound at 200 ng/mL [24]: 0.029
- IC50 [25]: 1.5 µM
- Stability [26]: Stable
- Activity [27]: 94%
- MSD [28]: 6 days
- blood plasma ratio [29]: 1.1
- IC50 [30]: 4.9 µM
- chromatographic logD [31]: 2.4
- Vd [32]: 10.1 L/kg
- AUC(0-inf) [33]: 11.8 µM·h
- solubility [34]: 4.93 mg/mL (≈ 13.3 mM)
- Stability [35]: Stable
- IC50 [36]: > 30 µM
- IC50 [37]: 0.08 µM
- MSD [38]: 8 days
- IC50 [39]: 0.07 µM
- MSD [40]: 6 days
- clearance [41]: 2.35 L/h/kg
- bioavailability [42]: 50.4%
